Experimental data reported in patent US8273769B2, “Phenoxy acetic acid derivatives” (Merck Serono SA, priority 2009, dated 2012).

Tests used:
CRTH2 [1] = biological target: T1, CRTH2 (Homo sapiens, UniProt Q9Y5Y4); assay: Radioligand binding Scintillation Proximity Assay ([3H]PGD2, hCRTH2-CHO cell membranes); design: host or cells: CHO cells; details: 1.5 nM [3H]PGD2, hCRTH2-CHO cell membranes, SPA
T1 sequence (Q9Y5Y4 1-395): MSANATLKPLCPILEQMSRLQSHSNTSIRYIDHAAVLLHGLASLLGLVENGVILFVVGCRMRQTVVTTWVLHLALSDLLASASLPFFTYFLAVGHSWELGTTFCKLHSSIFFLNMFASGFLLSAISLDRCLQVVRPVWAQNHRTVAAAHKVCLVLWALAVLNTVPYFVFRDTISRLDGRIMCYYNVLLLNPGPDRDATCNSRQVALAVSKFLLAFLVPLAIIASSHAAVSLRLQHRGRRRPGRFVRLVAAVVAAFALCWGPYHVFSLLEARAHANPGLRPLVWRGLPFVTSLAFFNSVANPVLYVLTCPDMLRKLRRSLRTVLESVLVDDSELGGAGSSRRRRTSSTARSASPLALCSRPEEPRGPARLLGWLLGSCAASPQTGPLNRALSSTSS
Method in brief: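 SPA competition binding at room temperature, 90 min with agitation: 1.5 nM [3H]PGD2, 10-50 μg/ml hCRTH2-CHO membrane protein, WGA SPA beads, HEPES pH 7.4 with 10 mM MnCl2, 1% DMSO. Non-specific binding defined with 10 μM PGD2; scintillation counting.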

CRTH2 [2] = biological target: T1, CRTH2; assay: Cellular Dielectric Spectroscopy (CHO-CRTH2 cells); format: cell-based; design: expressed in transfected cells; host or cells: CHO-CRTH2 cells; details: for IC50: antagonist mode, fixed concentration of PGD2 (EC80)
Procedure: Cellular Dielectric Spectroscopy (CDS) is a label-free technology based on the measurement of complex impedance changes (delta Z or dZ). Impedance (Z) is related to the ratio of voltage to current as described by Ohm's law (Z=V/I). In order to measure the changes in impedance that occur in response to receptor stimulation, mammalian cells are seeded onto a custom 96-well microliter plate that contains electrodes at the bottom of each well. Key contributors to the impedance measurements are changes in cell-substrate adherence, changes in cell shape and volume, and changes in cell-cell interactions. These factors individually or collectively affect the flow of current, influencing the magnitude and characteristics of the signal measured. G-protein coupled receptors ligand-induced activity can be measured using this technology and specific G protein coupling can be identified. Activities of reference agonist and antagonist molecules of CRTH2 have been measured using this assay and similar results were obtained compared to different functional assays.
CHO-CRTH2 cells are cultured in HAM's F12 (Lonza, Switzerland) supplemented with 10% foetal calf serum (PAA, Australia) and 400 μg/ml Geneticin. 100000 cells/well are seeded in standard 96W Microplates (MDS Analytical Technologies) and incubated at 37° C. in 5% CO2 for 24 hours. Cells are washed twice with 135 μl of cell key buffer (Hank's Balanced Salt Solution 1× (HBSS) (Invitrogen) supplemented with 10 mM HEPES pH 7.4 in presence of 1% DMSO). For EC50 determination. 15 μl of increasing concentration of Compounds of Formula (I) diluted in cell key buffer are added to the cells and agonist activity is then recorded for 25 minutes. […] Results are expressed as the amplitude between the highest and the lowest signal produced (max-min). Basal and maximum activities are measured, respectively in absence or presence of PGD2 (EC80).

CRTH2 [3] = biological target: T1, CRTH2; assay: [35S]GTPγS binding assay (CHO-CRTH2 cell membranes); format: biochemical; design: expressed in transfected cells; host or cells: CHO-CRTH2 cells; details: for IC50: antagonist mode, fixed concentration of PGD2 (EC80)
Procedure: Adherent CHO cells expressing hCRTH2 (Euroscreen, Belgium) were cultured in 225 cm^2 cell culture flasks (Corning, USA) in 30 ml of medium. After two rinses of phosphate buffered saline (PBS), cells were harvested in 10 ml of PBS containing 1 mM EDTA, centrifuged at 500×g for 5 min at 4° C. and frozen at −80° C. The pellet was re-suspended in 50 mM Tris-HCl, pH 7.4, 2 mM EDTA, 250 mM Sucrose, containing protease inhibitor cocktail tablets, (Complete EDTA-free, Roche, Germany) and incubated 30 min at 4° C. Cells were disrupted by nitrogen cavitation (Parr Instruments, USA) at 4° C. (800 p.s.i. for 30 min), and centrifuged at 500×g for 10 min at 4° C. Pellet containing nuclei and cellular debris was discarded and supernatant was centrifuged 60 min at 4° C. at 45000×g. Membrane pellet was re-suspended in storage buffer (10 mM HEPES/KOH pH 7.4, 1 mM EDTA, 250 mM sucrose, protease inhibitor cocktail tablets) using Dounce homogenization and frozen in liquid nitrogen, and stored at −80° C.
The [^35S]GTPγS assay measures the increase in guanine nucleotide exchange at G-proteins in cell membranes, resulting from agonist (PGD2) binding to CRTH2. This process can be monitored in vitro by incubating cell membranes containing G-proteins and CRTH2 with GDP and [^35S]GTPγS, a radiolabeled, hydrolysis-resistant analogue of GTP (see, Harrison et al., Life Sciences 74, 489-508, 2003). The addition of a Compounds of Formula (I) results in binding to CRTH2 and thus in an inhibition of agonist binding, which can be monitored as inhibition of the stimulation of GTP/GDP exchange.
Briefly, Compounds of Formula (I) are incubated in 96-well scintillating white polystyrene plates (Perkin Elmer, USA) in a final volume of 200 μl containing 20 mM HEPES/KOH pH 7.4, 3 mM MgCl2, 10 μg/ml Saponin, 5 μM GDP, 75 mM NaCl and 2% of dimethylsulphoxide (DMSO). Reaction is triggered by the addition of 5-10 μg of CHO-CRTH2 cell membranes and 0.15 nM [^35S]GTPγS. After 60 min incubation at 30° C., reaction is stopped by centrifugation at 700×g, at 4° C. for 10 minutes and supernatant is removed. The radioactivity coming from the [^35S]GTPγS bound on centrifuged cell membranes is recorded using a 1450 Micro-beta scintillation counter. For IC50 determination, increasing concentrations of compounds are incubated in presence of a fixed concentration of PGD2 (EC80). For EC50 measurements, compounds are incubated without addition of PGD2. Basal [^35S]GTPγS activity is determined without addition of any ligands or compounds. 100% [^35S]GTPγS activity is measured by the addition of 1 μM of PGD2.

[4] = test system: eosinophils in human whole blood; assay: PGD2-induced eosinophil cell shape assay in human whole blood; format: cell-based; details: 10 nM PGD2 final, flow cytometry
Procedure: The Compounds of Formula (I) were diluted in dimethylsulphoxide so that the total volume of dimethylsulfoxide was kept constant at 2% dimethylsulphoxide (Me2SO). Serial dilutions of 200 μM to 0.09 μM were prepared. Samples of 90 μl of human blood from healthy volunteers (Centre de Transfusion Sanguine de Genève) were pre-incubated in polypropylene Falcon tubes (BD 352063) for 20 minutes in a water bath at 37° C. with 10 μl of diluted compounds. For CRTH2 activation, 100 μl PGD2 (Cayman 12010) at 20 nM was added (10 nM final) to each tube and cells were maintained at 37° C. For negative control cells were treated with PBS. After 10 minutes, cell activation was stopped with 120 μl Formaldehyde 10% (4% final, Fluka 41650) and cells were rested for 10 minutes at room temperature. Fixed cells were transferred into polypropylene tubes and then treated for 1 hour in a water bath at 37° C. with 2 ml of Triton-Surfact-Amps X-100 (Pierce 28314) at 0.166% (0.13% Triton final). After several washes with PBS (red cells lysed progressively during washes, two washes are necessary), cells were analyzed by flow cytometry on a FACSCalibur. In one embodiment, the compounds of Formula (I) of the present invention are capable of blocking the cell shape change of eosinophils induced by PGD2 in Whole Blood.

[5] = inverse agonists, 100% of Emax = activity with 1 μM PGD2
[6] = partial agonists, agonist activity without PGD2

SMILES | IC50 (CRTH2 [1]) | IC50 (CRTH2 [3]) | further results
O=C(O)COc1ccc(Cl)cc1C#Cc1ccccc1Cl [Example 4, {4-chloro-2-[(2-chlorophenyl)ethynyl]phenoxy}acetic acid] | 15 nM | 37 nM | –
CCCS(=O)(=O)c1ccc(C)c(C#Cc2cc(Cl)ccc2OC(C)C(=O)O)c1 (centres unmarked) [Example 173, 2-(4-chloro-2-{[2-methyl-5-(propylsulfonyl)phenyl]ethynyl}phenoxy)propanoic acid] | 1 nM | 7 nM | –
Cc1ccncc1C#Cc1cc(C#N)ccc1OCC(=O)O [Example 44, {4-cyano-2-[(4-methylpyridin-3-yl)ethynyl]phenoxy}acetic acid] | 60 nM | – | EC50 (CRTH2 [2]; [6]): 115 nM; Emax (CRTH2 [2]; [6]): 59%; Emax (CRTH2 [3]; partial agonist, without PGD2, 100% = activity with 1 μM PGD2): 13%; EC50 (CRTH2 [3]; partial agonist, without addition of PGD2): 40 nM
COCCN(C)S(=O)(=O)c1ccc(C)c(C#Cc2cc(Cl)ccc2OCC(=O)O)c1 [Example 109, {4-chloro-2-[(5-{[(2-methoxyethyl)(methyl)amino]sulfonyl}-2-methylphenyl)ethynyl]phenoxy}acetic acid] | 5 nM | – | IC50 [4]: 77 nM
O=C(O)COc1ccc(Cl)cc1C#Cc1cccc(Cl)c1 [Example 3, {4-chloro-2-[(3-chlorophenyl)ethynyl]phenoxy}acetic acid] | 26 nM | 105 nM | –
CC(=O)Nc1ccc(C#Cc2cc(Cl)ccc2OCC(=O)O)cc1 [Example 152, (2-{[4-(acetylamino)phenyl]ethynyl}-4-chlorophenoxy)acetic acid] | 28 nM | – | Emax (CRTH2 [3]; [5]): -13%
Cc1ccc(S(=O)(=O)c2ccccc2)cc1C#Cc1cc(Cl)ccc1OCC(=O)O [Example 95, (4-chloro-2-{[2-methyl-5-(phenylsulfonyl)phenyl]ethynyl}phenoxy)acetic acid] | 9 nM | 10 nM | IC50 (CRTH2 [2]): 84 nM; Emax (CRTH2 [3]; [5]): -17%

Further molecules by falling IC50 (CRTH2 [1]), results first:

IC50 (CRTH2 [1]) | IC50 (CRTH2 [3]) | SMILES | further results
30 nM | 49 nM | CCCc1ccc(S(C)(=O)=O)cc1C#Cc1cc(C#N)ccc1OCC(=O)O [Example 56, (4-cyano-2-{[5-(methylsulfonyl)-2-propylphenyl]ethynyl}phenoxy)acetic acid] | IC50 (CRTH2 [2]): 53 nM
25 nM | 185 nM | CCCS(=O)(=O)c1cccc(C#Cc2cc(C#N)ccc2OCC(=O)O)c1 [Example 32, (4-cyano-2-{[3-(propylsulfonyl)phenyl]ethynyl}phenoxy)acetic acid] | –
12 nM | 288 nM | O=C(O)COc1ccc(Cl)cc1C#Cc1cccc(S(=O)(=O)CCO)c1 [Example 20, [4-chloro-2-({3-[(2-hydroxyethyl)sulfonyl]phenyl}ethynyl)phenoxy]acetic acid] | –
11 nM | – | CCCc1ccc(S(C)(=O)=O)cc1C#Cc1cc(Cl)ccc1OCC(=O)O [Example 49, (4-chloro-2-{[5-(methylsulfonyl)-2-propylphenyl]ethynyl}phenoxy)acetic acid] | IC50 [4]: 1190 nM
9 nM | 39 nM | CCCS(=O)(=O)c1ccc(C)c(C#Cc2cc(C#N)ccc2OCC(=O)O)c1 [Example 40, (4-cyano-2-{[2-methyl-5-(propylsulfonyl)phenyl]ethynyl}phenoxy)acetic acid] | –
9 nM | – | Cc1ccc(S(=O)(=O)CC(C)C)cc1C#Cc1cc(C#N)ccc1OCC(=O)O [Example 65, (4-cyano-2-{[5-(isobutylsulfonyl)-2-methylphenyl]ethynyl}phenoxy)acetic acid] | IC50 [4]: 123 nM
6 nM | 6 nM | CS(=O)(=O)c1ccc(Cl)c(C#Cc2cc(Cl)ccc2OCC(=O)O)c1 [Example 59, (4-chloro-2-{[2-chloro-5-(methylsulfonyl)phenyl]ethynyl}phenoxy)acetic acid] | IC50 (CRTH2 [2]): 14 nM
6 nM | 37 nM | CS(=O)(=O)c1cc(C#Cc2cc(Cl)ccc2OCC(=O)O)ccc1-c1ccccc1 [Example 140, (4-chloro-2-{[2-(methylsulfonyl)biphenyl-4-yl]ethynyl}phenoxy)acetic acid] | Emax (CRTH2 [3]; [5]): -11%
5 nM | 10 nM | CCCc1ccncc1C#Cc1cc(Cl)ccc1OCC(=O)O [Example 42, {4-chloro-2-[(4-propylpyridin-3-yl)ethynyl]phenoxy}acetic acid] | IC50 (CRTH2 [2]): 25 nM
3 nM | 9 nM | CCCS(=O)(=O)c1ccc(F)c(C#Cc2cc(Cl)ccc2OC(C)C(=O)O)c1 (centres unmarked) [Example 168, 2-(4-chloro-2-{[2-fluoro-5-(propylsulfonyl)phenyl]ethynyl}phenoxy)propanoic acid] | Emax (CRTH2 [3]; [5]): -13%
